Patent publication US10597388B2, “Pyridazinone herbicides” (FMC CORPORATION, priority 2014, dated 2020)

What was measured:
Test in all cases: Test C greenhouse herbicide test, pre- and postemergence
Assay type in all cases: in vivo
[1] = test system: barnyardgrass (Echinochloa crus-galli)
Summary of the method: (§1)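 Visual ratings on a 0 to 100 scale (0 = no effect, 100 = complete control) versus untreated controls, scored 13–15 d after treatment. Soil-applied preemergence to seeded loam/sand; foliar postemergence to 1- to 4-leaf plants (2–18 cm) in peat-vermiculite mix; compounds formulated in solvent plus surfactant.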

[2] = test system: blackgrass (Alopecurus myosuroides)
Summary of the method: as §1

[3] = test system: corn (Zea mays)
Summary of the method: as §1

[4] = test system: crabgrass, large (large crabgrass, Digitaria sanguinalis)
Summary of the method: as §1

[5] = test system: foxtail, giant (giant foxtail, Setaria faberii)
Summary of the method: as §1

[6] = test system: galium (catchweed bedstraw, Galium aparine)
Summary of the method: as §1

[7] = test system: johnsongrass (Sorghum halepense)
Summary of the method: as §1

[8] = test system: lambsquarters (Chenopodium album)
Summary of the method: as §1

[9] = test system: morningglory (Ipomoea coccinea)
Summary of the method: as §1

[10] = test system: nutsedge, yellow (yellow nutsedge, Cyperus esculentus)
Summary of the method: as §1

[11] = test system: oilseed rape (Brassica napus)
Summary of the method: as §1

[12] = test system: pigweed (Amaranthus retroflexus)
Summary of the method: as §1

[13] = test system: ragweed (common ragweed, Ambrosia elatior)
Summary of the method: as §1

[14] = test system: ryegrass, Italian (Italian ryegrass, Lolium multiflorum)
Summary of the method: as §1

[15] = test system: velvetleaf (Abutilon theophrasti)
Summary of the method: as §1

[16] = test system: waterhemp (common waterhemp, Amaranthus rudis)
Summary of the method: as §1

[17] = Postemergence, 31 g ai/ha, 0 to 100 scale (0 no effect, 100 complete control)
[18] = Postemergence, 125 g ai/ha, scale 0 to 100, 0 is no effect, 100 is complete control
[19] = Postemergence, 250 g ai/ha, scale 0 to 100, 0 no effect, 100 complete control, 13 to 15 d
[20] = Preemergence, 31 g ai/ha, scale 0 to 100, 0 is no effect, 100 is complete control
[21] = Preemergence, 62 g ai/ha, scale 0 to 100, 0 is no effect, 100 is complete control
[22] = Preemergence, 125 g ai/ha, scale 0 to 100, 0 is no effect, 100 is complete control
[23] = Preemergence, 250 g ai/ha, scale 0 to 100 (0 no effect, 100 complete control)
[24] = postemergence, 62 g ai/ha, scale 0 to 100, 0 no effect, 100 complete control

SMILES: CCOC(=O)Oc1c(C)nn(C)c(=O)c1-c1c(C)sc2ccc(C)cc12 [Compound 82]
- Barnyardgrass plant response rating [1, 17]: 20
- Plant response rating, Barnyardgrass [1, 18]: 25
- Plant response rating, Barnyardgrass [1, 19]: 30
- Plant response rating, Barnyardgrass [1, 20]: 10
- Plant response rating, Barnyardgrass [1, 21]: 55
- Plant response rating, Barnyardgrass [1, 22]: 70
- Barnyardgrass plant response rating [1, 23]: 90
- Barnyardgrass plant response rating [1, 24]: 25
- Blackgrass plant response rating [2, 17]: 10
- Plant response rating, Blackgrass [2, 18]: 35
- Plant response rating, Blackgrass [2, 19]: 40
- Plant response rating, Blackgrass [2, 20]: 50
- Plant response rating, Blackgrass [2, 21]: 60
- Plant response rating, Blackgrass [2, 22]: 65
- Blackgrass plant response rating [2, 23]: 80
- Blackgrass plant response rating [2, 24]: 35
- Corn plant response rating [3, 17]: 35
- Plant response rating, Corn [3, 18]: 10
- Plant response rating, Corn [3, 19]: 5
- Plant response rating, Corn [3, 20]: 0
- Plant response rating, Corn [3, 21]: 0
- Plant response rating, Corn [3, 22]: 20
- Corn plant response rating [3, 23]: 25
- Corn plant response rating [3, 24]: 30
- Plant response rating, Crabgrass, Large [4, 18]: 20
- Plant response rating, Crabgrass, Large [4, 19]: 30
- Plant response rating, Crabgrass, Large [4, 20]: 25
- Plant response rating, Crabgrass, Large [4, 21]: 20
- Plant response rating, Crabgrass, Large [4, 22]: 70
- Crabgrass, Large plant response rating [4, 23]: 80
- Crabgrass, Large plant response rating [4, 24]: 20
- Plant response rating, Foxtail, Giant [5, 18]: 60
- Plant response rating, Foxtail, Giant [5, 19]: 80
- Plant response rating, Foxtail, Giant [5, 20]: 60
- Plant response rating, Foxtail, Giant [5, 21]: 85
- Plant response rating, Foxtail, Giant [5, 22]: 90
- Foxtail, Giant plant response rating [5, 23]: 100
- Foxtail, Giant plant response rating [5, 24]: 25
- Plant response rating, Galium [6, 18]: 95
- Plant response rating, Galium [6, 19]: 95
- Plant response rating, Galium [6, 20]: 90
- Plant response rating, Galium [6, 21]: 90
- Plant response rating, Galium [6, 22]: 90
- Galium plant response rating [6, 23]: 95
- Galium plant response rating [6, 24]: 95
- Plant response rating, Johnsongrass [7, 18]: 10
- Plant response rating, Johnsongrass [7, 19]: 10
- Plant response rating, Johnsongrass [7, 20]: 45
- Plant response rating, Johnsongrass [7, 21]: 65
- Plant response rating, Johnsongrass [7, 22]: 60
- Johnsongrass plant response rating [7, 23]: 40
- Johnsongrass plant response rating [7, 24]: 5
- Plant response rating, Lambsquarters [8, 18]: 98
- Plant response rating, Lambsquarters [8, 19]: 100
- Plant response rating, Lambsquarters [8, 20]: 85
- Plant response rating, Lambsquarters [8, 21]: 90
- Plant response rating, Lambsquarters [8, 22]: 98
- Lambsquarters plant response rating [8, 23]: 98
- Lambsquarters plant response rating [8, 24]: 98
- Plant response rating, Morningglory [9, 18]: 100
- Plant response rating, Morningglory [9, 19]: 100
- Plant response rating, Morningglory [9, 20]: 85
- Plant response rating, Morningglory [9, 21]: 90
- Plant response rating, Morningglory [9, 22]: 95
- Morningglory plant response rating [9, 23]: 95
- Morningglory plant response rating [9, 24]: 100
- Plant response rating, Nutsedge, Yellow [10, 18]: 85
- Plant response rating, Nutsedge, Yellow [10, 19]: 85
- Plant response rating, Nutsedge, Yellow [10, 20]: 35
- Plant response rating, Nutsedge, Yellow [10, 21]: 60
- Plant response rating, Nutsedge, Yellow [10, 22]: 60
- Nutsedge, Yellow plant response rating [10, 23]: 90
- Nutsedge, Yellow plant response rating [10, 24]: 80
- Plant response rating, Oilseed Rape [11, 18]: 50
- Plant response rating, Oilseed Rape [11, 19]: 75
- Plant response rating, Oilseed Rape [11, 20]: 0
- Plant response rating, Oilseed Rape [11, 21]: 0
- Plant response rating, Oilseed Rape [11, 22]: 0
- Oilseed Rape plant response rating [11, 23]: 85
- Oilseed Rape plant response rating [11, 24]: 40
- Plant response rating, Pigweed [12, 18]: 90
- Plant response rating, Pigweed [12, 19]: 90
- Plant response rating, Pigweed [12, 20]: 95
- Plant response rating, Pigweed [12, 21]: 100
- Plant response rating, Pigweed [12, 22]: 100
- Pigweed plant response rating [12, 23]: 100
- Pigweed plant response rating [12, 24]: 90
- Plant response rating, Ragweed [13, 18]: 95
- Plant response rating, Ragweed [13, 19]: 95
- Plant response rating, Ragweed [13, 20]: 85
- Plant response rating, Ragweed [13, 21]: 90
- Plant response rating, Ragweed [13, 22]: 90
- Ragweed plant response rating [13, 23]: 95
- Ragweed plant response rating [13, 24]: 98
- Plant response rating, Ryegrass, Italian [14, 18]: 85
- Plant response rating, Ryegrass, Italian [14, 19]: 85
- Plant response rating, Ryegrass, Italian [14, 20]: 80
- Plant response rating, Ryegrass, Italian [14, 21]: 85
- Plant response rating, Ryegrass, Italian [14, 22]: 85
- Ryegrass, Italian plant response rating [14, 23]: 90
- Ryegrass, Italian plant response rating [14, 24]: 85
- Plant response rating, Velvetleaf [15, 18]: 95
- Plant response rating, Velvetleaf [15, 19]: 90
- Plant response rating, Velvetleaf [15, 20]: 65
- Plant response rating, Velvetleaf [15, 21]: 80
- Plant response rating, Velvetleaf [15, 22]: 85
- Velvetleaf plant response rating [15, 23]: 90
- Velvetleaf plant response rating [15, 24]: 80
- Plant response rating, Waterhemp [16, 18]: 90
- Plant response rating, Waterhemp [16, 19]: 98
- Plant response rating, Waterhemp [16, 20]: 100
- Plant response rating, Waterhemp [16, 21]: 100
- Plant response rating, Waterhemp [16, 22]: 100
- Waterhemp plant response rating [16, 23]: 100
- Waterhemp plant response rating [16, 24]: 98
